Measured values from patent US20240197726A1, “NOVEL TETRAHYDROISOQUINOLINE ALKALOID COMPOUND CONTAINING MACROCYCLE” (THE UNIVERSITY OF TOKYO, priority 2021, published 2024).

Assays:
Format in all cases: cell-based
[1] = tested on: OVCAR-4 cancer cells; assay: antitumor activity, sulforhodamine B cell growth assay, OVCAR-4; details: Homo sapiens; OVCAR-4, drug exposure 48 hours; read-out: GI50 value: 50% growth inhibitory concentration
Experimental: (§1) The THIQ compound containing a macrocyclic structure of the present invention was administered to various cancer cell lines, and the antitumor activity (Go value) was observed. Specifically, verification was performed according to the literature (Yamori, T.; Matsunaga, A.; Sato, S.; Yamazaki, K.; Komi, A.; Ishizu, K. et al. Cancer Res. 1999, 59, 4042) by the following procedure.
(§2) Cells were plated at an appropriate density in a 96-well plate in RPMI 1640 together with 5% fetal bovine serum, and adhered overnight. The cells were exposed to a drug for 48 hours. Then, according to the sulforhodamine B assay described by Skehan et al (Skehan P., Storeng R., Scudiero D., Monks A., McMahon J., Vistica D., Warren J. T., Bokesch H., Kenney S., Boyd M. R. J Natl. Cancer Inst, 1990, 82, 1107-1112), the cell growth rate was measured. The absorbance of the control well (C) and the test well (T) was measured at 525 nm. In addition, the time at which the drug was added was set as time 0, and the absorbance for the test well (T0) was measured. Using these measured values, the cell growth inhibitory effect (% growth=PG) was calculated by the following formula at each concentration of the drug.
(§3) (T<T0): PG=100×[(T−T0)/T]
(§4) The PG values determined above for each cell line were plotted against the concentration (logarithm) on a semi-logarithmic graph, and summarized for each visceral cancer. Concentrations at which the dose-response curve of each cell line crossed the horizontal line of PG=50%, 0%, or −50% were calculated. These concentrations were defined as Log GI50, Log TGI, and Log LC50. Actually, using two data points of the drug concentration before and after crossing each horizontal line, the drug concentration (logarithmic value) at the intersection of the straight line connecting the two points and the horizontal line for each PG was calculated.

[2] = tested on: KM-12 colorectal cancer cells; assay: antitumor activity, sulforhodamine B cell growth assay, KM-12; details: Homo sapiens, KM12; KM-12, drug exposure 48 hours; read-out: GI50 value: 50% growth inhibitory concentration
Experimental: as §1, §2, §3, §4

[3] = tested on: OVCAR-3 cancer cells; assay: antitumor activity, sulforhodamine B cell growth assay, OVCAR-3; details: Homo sapiens; OVCAR-3, drug exposure 48 hours; read-out: GI50 value: 50% growth inhibitory concentration
Experimental: as §1, §2, §3, §4

[4] = tested on: MKN-A gastric cancer cells; assay: antitumor activity, sulforhodamine B cell growth assay, MKN-A; details: MKN-A, drug exposure 48 hours; read-out: GI50 value: 50% growth inhibitory concentration
Experimental: as §1, §2, §3, §4

[5] = tested on: MKN-B gastric cancer cells; assay: antitumor activity, sulforhodamine B cell growth assay, MKN-B; details: MKN-B, drug exposure 48 hours; read-out: GI50 value: 50% growth inhibitory concentration
Experimental: as §1, §2, §3, §4

[6] = tested on: NCI-H226 lung cancer cells; assay: antitumor activity, sulforhodamine B cell growth assay, NCI-H226; details: Homo sapiens; NCI-H226, drug exposure 48 hours; read-out: GI50 value: 50% growth inhibitory concentration
Experimental: as §1, §2, §3, §4

[7] = tested on: DMS273 lung cancer cells; assay: antitumor activity, sulforhodamine B cell growth assay, DMS273; details: Homo sapiens, DMS-273; DMS273, drug exposure 48 hours; read-out: GI50 value: 50% growth inhibitory concentration
Experimental: as §1, §2, §3, §4

[8] = tested on: RXF-631L kidney cancer cells; assay: antitumor activity, sulforhodamine B cell growth assay, RXF-631L; details: RXF-631L, drug exposure 48 hours; read-out: GI50 value: 50% growth inhibitory concentration
Experimental: as §1, §2, §3, §4

[9] = tested on: HCT-15 colorectal cancer cells; assay: antitumor activity, sulforhodamine B cell growth assay, HCT-15; details: Homo sapiens; HCT-15, drug exposure 48 hours; read-out: GI50 value: 50% growth inhibitory concentration
Experimental: as §1, §2, §3, §4

[10] = tested on: HBC-5 breast cancer cells; assay: antitumor activity, sulforhodamine B cell growth assay, HBC-5; details: HBC5; HBC-5, drug exposure 48 hours; read-out: GI50 value: 50% growth inhibitory concentration
Experimental: as §1, §2, §3, §4

[11] = tested on: MKN1 gastric cancer cells; assay: antitumor activity, sulforhodamine B cell growth assay, MKN1; details: Homo sapiens, MKN-1; MKN1, drug exposure 48 hours; read-out: GI50 value: 50% growth inhibitory concentration
Experimental: as §1, §2, §3, §4

[12] = tested on: OVCAR-8 cancer cells; assay: antitumor activity, sulforhodamine B cell growth assay, OVCAR-8; details: Homo sapiens; OVCAR-8, drug exposure 48 hours; read-out: GI50 value: 50% growth inhibitory concentration
Experimental: as §1, §2, §3, §4

[13] = tested on: LOX-IMVI melanoma cells; assay: antitumor activity, sulforhodamine B cell growth assay, LOX-IMVI; details: Homo sapiens; LOX-IMVI, drug exposure 48 hours; read-out: GI50 value: 50% growth inhibitory concentration
Experimental: as §1, §2, §3, §4

[14] = tested on: MCF-7 breast cancer cells; assay: antitumor activity, sulforhodamine B cell growth assay, MCF-7; details: Homo sapiens, MCF7; MCF-7, drug exposure 48 hours; read-out: GI50 value: 50% growth inhibitory concentration
Experimental: as §1, §2, §3, §4

[15] = tested on: SK-OV-3 cancer cells; assay: antitumor activity, sulforhodamine B cell growth assay, SK-OV-3; details: Homo sapiens; SK-OV-3, drug exposure 48 hours; read-out: GI50 value: 50% growth inhibitory concentration
Experimental: as §1, §2, §3, §4

[16] = tested on: MKN45 gastric cancer cells; assay: antitumor activity, sulforhodamine B cell growth assay, MKN45; details: Homo sapiens, MKN-45; MKN45, drug exposure 48 hours; read-out: GI50 value: 50% growth inhibitory concentration
Experimental: as §1, §2, §3, §4

[17] = tested on: SNB-75 central nervous system cancer cells; assay: antitumor activity, sulforhodamine B cell growth assay, SNB-75; details: Homo sapiens; SNB-75, drug exposure 48 hours; read-out: GI50 value: 50% growth inhibitory concentration
Experimental: as §1, §2, §3, §4

[18] = tested on: U251 central nervous system cancer cells; assay: antitumor activity, sulforhodamine B cell growth assay, U251; details: Homo sapiens, U-251; U251, drug exposure 48 hours; read-out: GI50 value: 50% growth inhibitory concentration
Experimental: as §1, §2, §3, §4

[19] = tested on: SNB-78 central nervous system cancer cells; assay: antitumor activity, sulforhodamine B cell growth assay, SNB-78; details: Homo sapiens; SNB-78, drug exposure 48 hours; read-out: GI50 value: 50% growth inhibitory concentration
Experimental: as §1, §2, §3, §4

[20] = tested on: St-4 gastric cancer cells; assay: antitumor activity, sulforhodamine B cell growth assay, St-4; details: St-4 (SI-4 in Tables 2-11), drug exposure 48 hours; read-out: GI50 value: 50% growth inhibitory concentration
Experimental: as §1, §2, §3, §4

[21] = tested on: HT-29 colorectal cancer cells; assay: antitumor activity, sulforhodamine B cell growth assay, HT-29; details: Homo sapiens; HT-29, drug exposure 48 hours; read-out: GI50 value: 50% growth inhibitory concentration
Experimental: as §1, §2, §3, §4

Row | SMILES | GI50 [1] | GI50 [2] | GI50 [3] | GI50 [4] | GI50 [5] | GI50 [6] | GI50 [7] | GI50 [8] | GI50 [9] | GI50 [10] | GI50 [11] | GI50 [12] | GI50 [13] | GI50 [14] | GI50 [15] | GI50 [16] | GI50 [17] | GI50 [18] | GI50 [19] | GI50 [20] | also measured
1 | COc1c(C)cc2c(c1O)[C@@H]1[C@@H]3Cc4c5c(C)c6c(c4C(CNC(=O)[C@H](C)N(C)CC#CCO5)N3[C@@H](C#N)[C@H](C2)N1C)OCO6 [Compound 29] | 3.5 nM | 3.1 nM | 2.6 nM | 3.5 nM | 3 nM | 2.5 nM | 1.1 nM | 3.1 nM | 3.9 nM | 1.8 nM | 2.3 nM | 2.6 nM | 0.59 nM | 0.67 nM | 5.7 nM | 1.3 nM | 1.3 nM | 1.4 nM | 3.1 nM | 3.8 nM | GI50 [21]: 2 nM
2 | C#CCN1C/C=C/C(=C)COc2c(C)c3c(c4c2C[C@H]2[C@H]5c6c(cc(C)c(OC)c6O)C[C@@H]([C@H](C#N)N2C4CNC(=O)[C@@H]1C)N5C)OCO3 [Compound 35] | 3.6 nM | 3.8 nM | 3.2 nM | 3.7 nM | 3.5 nM | 2.7 nM | 2.5 nM | 2.9 nM | 4.5 nM | 2.7 nM | 2.7 nM | 3.1 nM | 1.7 nM | 0.87 nM | 6.5 nM | 2.7 nM | 1.7 nM | 2.5 nM | 3.4 nM | 3.8 nM | GI50 [21]: 3.2 nM
